Results published in publication PMC3361238, “The Effects of Addition of Mononucleotides on Sma nuc Endonuclease Activity” (The Scientific World Journal, 2012).

Legend:
[1] = molecular target: T1, Sma nuc endonuclease (isoform Sm2) (Serratia marcescens, UniProt P13717); experiment: hyperchromic RNA hydrolysis assay at […] nm; Cornish-Bowden plot S/V against [I]; format: biochemical; conditions: RNA substrate 0.03-0.18 mM, 50 mM Tris-HCl pH 8.5, MgSO4 1.2-7.2 mM, 37 °C; uncompetitive
T1 construct: gene nucA; Sm2 known as the full 245-residue mature form (signal peptide removed)
T1 sequence (P13717 22-266): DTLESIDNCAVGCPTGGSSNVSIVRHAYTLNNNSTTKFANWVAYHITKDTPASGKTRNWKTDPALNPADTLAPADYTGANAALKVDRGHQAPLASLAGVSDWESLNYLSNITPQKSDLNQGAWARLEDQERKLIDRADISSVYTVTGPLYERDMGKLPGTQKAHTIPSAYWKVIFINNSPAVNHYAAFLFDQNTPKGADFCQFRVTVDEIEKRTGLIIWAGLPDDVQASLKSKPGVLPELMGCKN

[2] = molecular target: T1, Sma nuc endonuclease (isoform Sm2); experiment: hyperchromic RNA hydrolysis assay at […] nm; secondary double reciprocal plot of Lineweaver-Burk segments; format: biochemical

Row | Structure (SMILES) | Ki [1] [µM] | Ki [2] [µM]
1 | O=c1ccn([C@@H]2O[C@H](COP(=O)(O)O)[C@@H](O)[C@H]2O)c(=O)[nH]1 [UMP] | 310.7 | 
2 | Nc1ncnc2c1ncn2[C@@H]1O[C@H](COP(=O)(O)O)[C@@H](O)[C@H]1O [AMP] |  | 76.5
3 | Nc1ncnc2c1ncn2[C@H]1C[C@H](O)[C@@H](COP(=O)(O)O)O1 [dAMP] |  | 60
4 | Nc1ccn([C@@H]2O[C@H](COP(=O)(O)O)[C@@H](O)[C@H]2O)c(=O)n1 [CMP] | 86.2 | 
5 | Nc1nc2c(ncn2[C@@H]2O[C@H](COP(=O)(O)O)[C@@H](O)[C@H]2O)c(=O)[nH]1 [GMP] | 229 | 
